From patent US12414952B2 (Merck Sharp & Dohme LLC, priority 2018, dated 2025)

Target: human A2a adenosine receptor (Homo sapiens (Human), UniProt P29274)
Assay: A2a binding affinity using radioligand binding, Method (A)
Conditions: Method (A): [3H]SCH58261 filtration binding
Source text: The A2a receptor affinity binding assay measured the amount of binding of a tritiated ligand with high affinity for the A2a adenosine receptor to membranes made from HEK293 or CHO cells recombinantly expressing the human A2a adenosine receptor, in the presence of varying concentrations of a compound of the invention. The data were generated using either filtration binding or a homogenous scintillation proximity assay (SPA).
Method (A): Measurement of A2a Binding Affinity Using Radioligand Binding
148 μL (5 μg/mL) membranes (Perkin Elmer, Cat. No. RBHA2aM400UA) and 2 μL compounds of the invention to be tested (test compound) were transferred to individual wells of a 96-well polypropylene assay plate and incubated for 15 to 30 min at room temperature. [^3H] SCH58261 ((7-(2-phenylethyl)-5-amino-2-(2-furyl)-pyrazolo-[4,3-e]-1,2,4-triazolo[1,5-c]pyrimidine)) was diluted in assay buffer (50 mM Tris pH 7.4, 10 mM MgCl2, 0.005% Tween20) to a concentration of 4 nM and 50 μL transferred to each well of the assay plate. […] The assay plate was incubated at room temperature for 60 min with agitation. […] Filtering was achieved by aspirating the contents of the assay plate for 5 sec, then washing and aspirating the contents three times with ice-cooled wash buffer (50 mM Tris-HCl pH 7.4, 150 mM NaCl) and allowing the vacuum manifold to dry the plate for […]. The filter plate was incubated for at least 1 h at 55° C. and allowed to dry. The bottom of the filter plate was sealed with backing tape. […] The plate was incubated for at least 20 min, and then the amount of radioactivity remaining in each well was determined using a TopCount® (Perkin Elmer) scintillation counter. After normalization to total and non-specific binding, the percent effect at each compound concentration was calculated. The plot of percent effect versus the log of compound concentration was analyzed electronically using a 4-parameter logistic fit based on the Levenberg-Marquardt algorithm to generate IC50 values.

Sequence of human A2a adenosine receptor (P29274 whole entry): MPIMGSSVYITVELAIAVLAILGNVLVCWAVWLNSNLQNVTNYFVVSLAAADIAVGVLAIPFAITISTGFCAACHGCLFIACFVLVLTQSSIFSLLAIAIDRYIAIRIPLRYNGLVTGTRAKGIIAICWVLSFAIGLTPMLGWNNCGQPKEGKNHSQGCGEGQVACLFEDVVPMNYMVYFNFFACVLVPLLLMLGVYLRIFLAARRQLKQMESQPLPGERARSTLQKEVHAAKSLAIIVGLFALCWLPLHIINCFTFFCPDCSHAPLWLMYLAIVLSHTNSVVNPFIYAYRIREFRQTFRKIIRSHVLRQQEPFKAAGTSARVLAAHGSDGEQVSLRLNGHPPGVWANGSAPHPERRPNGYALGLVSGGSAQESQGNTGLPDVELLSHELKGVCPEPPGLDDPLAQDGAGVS

SMILES	IC50 [nM]
Cc1c(-c2cnn(C(F)(F)F)c2)nc(N)c2nc(Cc3ccccc3)nn12 [Example 3.44]	490
Cc1c(-c2cc(F)ccc2F)nc(N)c2nc(Cc3ccc(C(F)(F)F)cc3)nn12 [Example 7.4, 6-(2,5-difluorophenyl)-5-methyl-2-(4-(trifluoromethyl)benzyl)-[1,2,4]triazolo[1,5-a]pyrazin-8-amine]	15.3
Cc1c(-c2ccc(Cl)c(F)c2)nc(N)c2nc(Cc3ccccc3)nn12 [Example 3.16]	73.9
Cc1c(-c2ccc(OC(F)F)cc2)nc(N)c2nc(Cc3ccccc3)nn12 [Example 3.19]	121
Cc1c(-c2ccc(F)cc2)nc(N)n2nc(CCN3CCn4c(cnc4C(C)C)C3)nc12 [Example 2.17]	124
Nc1nc(-c2ncco2)c(C2CC2)n2nc(Cc3ccccc3)nc12 [Example 20.4, 2-benzyl-5-cyclopropyl-6-(oxazol-2-yl)-[1,2,4]triazolo[1,5-a]pyrazin-8-amine]	3.2
Nc1nc(-c2ccccc2)cn2nc(Cc3ccccc3)nc12 [Example 2.4]	1.6
COc1ccc(-c2nc(N)c3nc(Cc4ccccc4)nn3c2C)c(F)c1 [Example 3.14]	40.6
Cc1cc2n(n1)CCN(CCc1nc3cc(-c4ncco4)nc(N)n3n1)C2 [Example 17.24, 2-(2-(2-methyl-6,7-dihydropyrazolo[1,5-a]pyrazin-5(4H)-yl)ethyl)-7-(oxazol-2-yl)-[1,2,4]triazolo[1,5-c]pyrimidin-5-amine]	319
COc1ccc(-c2nc(N)c3nc(Cc4ccccc4)nn3c2C)cc1F [Example 3.8]	20.6
Nc1nc(-c2ncco2)cc2nc(CCN3CC(F)(F)C3)nn12 [Example 17.20, 2-(2-(3,3-difluoroazetidin-1-yl)ethyl)-7-(oxazol-2-yl)-[1,2,4]triazolo[1,5-c]pyrimidin-5-amine]	90.9
Cc1c(-c2ncco2)nc(N)n2nc(Cc3ccccc3)nc12 [Example 19.3, 2-benzyl-8-methyl-7-(oxazol-2-yl)-[1,2,4]triazolo[1,5-c]pyrimidin-5-amine]	0.5
Cc1nc2cc(-c3ncco3)nc(N)n2n1 [Example 1.9]	534
Nc1nc(-c2ccc(F)cc2)cn2nc(Cc3ccccc3)nc12 [Example 2.3, 2-benzyl-6-(4-fluorophenyl)-[1,2,4]triazolo[1,5-a]pyrazin-8-amine]	2.5
Cc1c(-c2ccc(F)c(F)c2)nc(N)c2nc(Cc3ccccc3)nn12 [Example 3.10]	27.9
Cc1nc2c(N)nc(-c3ncco3)cn2n1 [Example 1.5]	909
COc1ncc(-c2nc(N)c3nc(Cc4ccccc4)nn3c2C)cc1F [Example 3.13]	40
Nc1nc(-c2cc(F)ccc2F)cn2nc(Cc3ccccc3)nc12 [Example 2.7]	2.2
CC(C)c1ncc2n1CCN(CCc1nc3c(N)nc(-c4ncco4)cn3n1)C2 [Example 17.26, 2-(2-(3-isopropyl-5,6-dihydroimidazo[1,5-a]pyrazin-7(8H)-yl)ethyl)-6-(oxazol-2-yl)-[1,2,4]triazolo[1,5-a]pyrazin-8-amine]	629
Cc1c(-c2ncco2)nc(N)n2nc(CCN3CCc4ncn(C5CCCC5)c4C3)nc12 [Example 17.19, 2-(2-(3-cyclopentyl-3,4,6,7-tetrahydro-5H-imidazo[4,5-c]pyridin-5-yl)ethyl)-8-methyl-7-(oxazol-2-yl)-[1,2,4]triazolo[1,5-c]pyrimidin-5-amine]	3
Cc1c(-c2ccc(Cl)cc2F)nc(N)c2nc(Cc3ccccc3)nn12 [Example 3.21]	168
Nc1nc(-c2ccccc2)cc2nc(CCN3CCn4c(cnc4C4CCC4)C3)nn12 [Example 17.27, 2-(2-(3-cyclobutyl-5,6-dihydroimidazo[1,5-a]pyrazin-7(8H)-yl)ethyl)-7-phenyl-[1,2,4]triazolo[1,5-c]pyrimidin-5-amine]	39.9
Cc1c(-c2ncco2)nc(N)n2nc(CCN3CCc4c(ncn4C4CCCC4)C3)nc12 [Example 17.18, 2-(2-(1-cyclopentyl-1,4,6,7-tetrahydro-5H-imidazo[4,5-c]pyridin-5-yl)ethyl)-8-methyl-7-(oxazol-2-yl)-[1,2,4]triazolo[1,5-c]pyrimidin-5-amine]	0.6
Cc1cc(-c2nc(N)c3nc(Cc4ccccc4)nn3c2C)ccn1 [Example 3.15]	54.8
Nc1nc(-c2ncco2)cc2nc(CCN3CCN(CC4CC4)C(=O)C3)nn12 [Example 17.23, 4-(2-(5-amino-7-(oxazol-2-yl)-[1,2,4]triazolo[1,5-c]pyrimidin-2-yl)ethyl)-1-(cyclopropylmethyl)piperazin-2-one]	122
Cc1c(-c2ncco2)nc(N)c2nc(Cc3ccccc3)nn12 [Example 20.2, 2-benzyl-5-methyl-6-(oxazol-2-yl)-[1,2,4]triazolo[1,5-a]pyrazin-8-amine]	0.5

SMILES	IC50 [nM]
COc1cccc(-c2nc(N)c3nc(Cc4ccccc4)nn3c2C)c1F [Example 3.11]	28.5
Cc1c(-c2ccc(Cl)cc2)nc(N)c2nc(Cc3ccccc3)nn12 [Example 3.18]	84.4
Cc1c(-c2ccccc2)nc(N)c2nc(Cc3ccccc3)nn12 [Example 3.5]	2.2
Cc1nc2c(N)nc(-c3ccccc3)cn2n1 [Example 2.5]	112
Nc1nc(-c2ncco2)cc2nc(CCN3CCc4nccnc4C3)nn12 [Example 17.25, 2-(2-(7,8-dihydropyrido[3,4-b]pyrazin-6(5H)-yl)ethyl)-7-(oxazol-2-yl)-[1,2,4]triazolo[1,5-c]pyrimidin-5-amine]	402
Cn1nc(C(F)(F)F)c2c1CCN(CCc1nc3cc(-c4ncco4)nc(N)n3n1)C2 [Example 17.22, 2-(2-(1-methyl-3-(trifluoromethyl)-1,4,6,7-tetrahydro-5H-pyrazolo[4,3-c]pyridin-5-yl)ethyl)-7-(oxazol-2-yl)-[1,2,4]triazolo[1,5-c]pyrimidin-5-amine]	78.9
Nc1nc(-c2ncco2)cc2nc(CCN3CCc4[nH]ncc4C3)nn12 [Example 17.21, 7-(oxazol-2-yl)-2-(2-(1,4,6,7-tetrahydro-5H-pyrazolo[4,3-c]pyridin-5-yl)ethyl)-[1,2,4]triazolo[1,5-c]pyrimidin-5-amine]	450
Cc1nc2c(o1)CN(CCc1nc3c(C)c(-c4cnco4)nc(N)n3n1)C2 [Example 2.25]	26.7
Cc1c(-c2ncco2)nc(N)c2nc(Cc3ccccc3C(F)(F)F)nn12 [Example 7.3, 5-methyl-6-(oxazol-2-yl)-2-(2-(trifluoromethyl)benzyl)-[1,2,4]triazolo[1,5-a]pyrazin-8-amine]	0.5
Cc1c(-c2ccc(F)cc2)nc(N)c2nc(Cc3ccccc3)nn12 [Example 20.3, 2-benzyl-6-(4-fluorophenyl)-5-methyl-[1,2,4]triazolo[1,5-a]pyrazin-8-amine]	40
Cc1c(-c2cncc(F)c2)nc(N)c2nc(Cc3ccccc3)nn12 [Example 3.9]	24.5
Cc1c(-c2ncco2)nc(N)n2nc(Cn3cc(CCC(C)(C)O)cn3)nc12 [Example 21.3, 4-(1-((5-amino-8-methyl-7-(oxazol-2-yl)-[1,2,4]triazolo[1,5-c]pyrimidin-2-yl)methyl)-1H-pyrazol-4-yl)-2-methylbutan-2-ol]	21.5
Cc1c(-c2ccc(F)cc2F)nc(N)c2nc(Cc3ccccc3)nn12 [Example 3.17]	82.2
Nc1nc(-c2ccccc2)cc2nc(CCO)nn12 [Example 14.3, 2-(5-amino-7-phenyl-[1,2,4]triazolo[1,5-c]pyrimidin-2-yl)ethan-1-ol]	493
Cc1c(-c2cc(F)ccc2F)nc(N)c2nc(Cc3ccccc3)nn12 [Example 3.4]	1.1
Cc1c(-c2ccccc2F)nc(N)c2nc(Cc3ccccc3)nn12 [Example 3.6]	6.4
Cc1c(-c2cccc(F)c2)nc(N)c2nc(Cc3ccccc3)nn12 [Example 3.3, 2-benzyl-6-(3-fluorophenyl)-5-methyl-[1,2,4]triazolo[1,5-a]pyrazin-8-amine]	1.1
Cc1nc2c(o1)CN(CCc1nc3c(C)c(-c4ncco4)nc(N)n3n1)C2 [Example 1.7]	7.4
Cc1c(-c2ncccn2)nc(N)c2nc(Cc3ccccc3)nn12 [Example 1.4]	3.6
COc1ccc(-c2nc(N)c3nc(Cc4ccccc4)nn3c2C)cc1Cl [Example 3.7]	11
Cc1c(-c2cc(C(F)(F)F)nn2C)nc(N)c2nc(Cc3ccccc3)nn12 [Example 3.45]	17.8
Cc1c(-c2ccc(Cl)c(Cl)c2)nc(N)c2nc(Cc3ccccc3)nn12 [Example 3.12]	38
Nc1nc(-c2ncco2)cn2nc(Cc3ccccc3)nc12 [Example 1.2, 2-benzyl-6-(oxazol-2-yl)-[1,2,4]triazolo[1,5-a]pyrazin-8-amine]	3.1
Cc1nc2c(N)nc(-c3ccc(F)cc3)cn2n1 [Example 2.6]	523
Cc1c(-c2nccs2)nc(N)c2nc(Cc3ccccc3)nn12 [Example 1.3]	1.3
